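Cultured in 96-well plates, cells were exposed to test compound for 48 hours across five concentrations. GI50 marks 50% less growth. TGI: concentration producing complete growth inhibition.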
test system: MALME-3M melanoma; test: NCI anticancer screen, dose series, 48 h

Row | SMILES | TGI | GI50
1 | CCc1n[nH]c(=O)n1-c1ccc2ccccc2c1 | > 100 µM | –
2 | CSc1nc2c(c(N(C)C)n1)C(O)n1c(nc3ccccc31)S2 (centres undefined) | > 100 µM | –
3 | COc1ccc(-c2nc3ccccc3c(=S)n2OC(C)=O)cc1 | 20.4 µM | –
4 | C=C1C(=O)[C@@]23CC[C@@H]4[C@@]5(C)CCC[C@@]4(OC5=O)[C@@]2(C)CC[C@@H]1C3 | 5.31 µM | –
5 | CCCCOCCOC1=C(Cl)C(=O)c2c(O)ccc(O)c2C1=O | 0.628 µM | –
6 | CCN(CC)c1ccc(/C=C/c2ccnc3ccccc23)cc1 | > 100 µM | –
7 | COc1ccc(C(=O)NCCN(C)C)c2nc3ccccc3cc12 | 2.3 µM | –
8 | CCN(C(=O)N[C@@H](C)C(=O)N[C@@H](Cc1ccccc1)C(=O)OC)c1ccccc1 | 83.8 µM | –
9 | O=C(CCSC1=NCCCN1)c1ccc(F)cc1 | 19.1 µM | –
10 | CCOc1c(OC)cc(-c2nc3n(n2)C(=O)C(CC)S3)cc1OC (centres undefined) | > 10 µM | –
11 | CC1OC(O[C@H]2C3C=CO[C@@H](OC4OC(CO)C(O)C(O)C4O)C3[C@@]3(COC(=O)/C=C/c4ccccc4)O[C@@H]23)C(O)C(O)C1O (some centres undefined) | > 100 µM | –
12 | O=C1C(=Nc2ccc(Nc3ccccc3)cc2)Oc2ccccc21 | 9.71 µM | –
13 | Cc1nc2ccccc2c(-n2cccn2)c1CCn1cccn1 | > 100 µM | –
14 | COc1cc2c(cc1OCCCCCN1CCN(c3ncnc4ccccc34)CC1)N=CC1CCCN1C2=O (centres undefined) | 0.0618 µM | 0.0303 µM
15 | C/C1=C\[C@H](C)C[C@H](C)OC(=O)[C@H](C)NC(=O)[C@@H](Cc2ccc(O)c(Br)c2)N(C)C(=O)[C@H](C)NC(=O)[C@@H](C)C1 | 2.32 µM | –
16 | COc1cc2c(cc1OCCCN1C(=O)c3cccc4cccc(c34)C1=O)N=C[C@@H]1CCCN1C2=O | 35.1 µM | –
17 | COC(=O)c1ccccc1CC1Cc2cccc(C)c2C1=O (centres undefined) | 48.3 µM | –
18 | COc1ccc(/C=N/NC(=O)c2ccc(O)c(CN(C)C)c2)cc1 | > 100 µM | –

test system: HCC-2998 colon; test: NCI anticancer screen, dose series, 48 h

Row | SMILES | TGI | GI50
19 | CCc1n[nH]c(=O)n1-c1ccc2ccccc2c1 | > 100 µM | –
20 | CSc1nc2c(c(N(C)C)n1)C(O)n1c(nc3ccccc31)S2 (centres undefined) | > 100 µM | –
21 | COc1ccc(-c2nc3ccccc3c(=S)n2OC(C)=O)cc1 | > 25 µM | –
22 | C=C1C(=O)[C@@]23CC[C@@H]4[C@@]5(C)CCC[C@@]4(OC5=O)[C@@]2(C)CC[C@@H]1C3 | 5.56 µM | –
23 | CCCCOCCOC1=C(Cl)C(=O)c2c(O)ccc(O)c2C1=O | 6.01 µM | –
24 | CCN(CC)c1ccc(/C=C/c2ccnc3ccccc23)cc1 | > 100 µM | –
25 | COc1ccc(C(=O)NCCN(C)C)c2nc3ccccc3cc12 | 8.34 µM | –
26 | CCN(C(=O)N[C@@H](C)C(=O)N[C@@H](Cc1ccccc1)C(=O)OC)c1ccccc1 | > 100 µM | –
27 | O=C(CCSC1=NCCCN1)c1ccc(F)cc1 | 36.5 µM | –
28 | CCOc1c(OC)cc(-c2nc3n(n2)C(=O)C(CC)S3)cc1OC (centres undefined) | > 10 µM | –
29 | CC1OC(O[C@H]2C3C=CO[C@@H](OC4OC(CO)C(O)C(O)C4O)C3[C@@]3(COC(=O)/C=C/c4ccccc4)O[C@@H]23)C(O)C(O)C1O (some centres undefined) | > 100 µM | –
30 | O=C1C(=Nc2ccc(Nc3ccccc3)cc2)Oc2ccccc21 | 23.4 µM | –
31 | Cc1nc2ccccc2c(-n2cccn2)c1CCn1cccn1 | > 100 µM | –
32 | COc1cc2c(cc1OCCCCCN1CCN(c3ncnc4ccccc34)CC1)N=CC1CCCN1C2=O (centres undefined) | 0.0349 µM | 0.0178 µM
33 | C/C1=C\[C@H](C)C[C@H](C)OC(=O)[C@H](C)NC(=O)[C@@H](Cc2ccc(O)c(Br)c2)N(C)C(=O)[C@H](C)NC(=O)[C@@H](C)C1 | > 25 µM | –
34 | COc1cc2c(cc1OCCCN1C(=O)c3cccc4cccc(c34)C1=O)N=C[C@@H]1CCCN1C2=O | > 100 µM | –
35 | COC(=O)c1ccccc1CC1Cc2cccc(C)c2C1=O (centres undefined) | > 100 µM | –
36 | COc1ccc(/C=N/NC(=O)c2ccc(O)c(CN(C)C)c2)cc1 | > 100 µM | –

test system: SK-MEL-2 melanoma; test: NCI anticancer screen, dose series, 48 h

Row | SMILES | TGI | GI50
37 | CCc1n[nH]c(=O)n1-c1ccc2ccccc2c1 | > 100 µM | –
38 | CSc1nc2c(c(N(C)C)n1)C(O)n1c(nc3ccccc31)S2 (centres undefined) | > 100 µM | –
39 | COc1ccc(-c2nc3ccccc3c(=S)n2OC(C)=O)cc1 | > 25 µM | –
40 | C=C1C(=O)[C@@]23CC[C@@H]4[C@@]5(C)CCC[C@@]4(OC5=O)[C@@]2(C)CC[C@@H]1C3 | 8.12 µM | –
41 | CCCCOCCOC1=C(Cl)C(=O)c2c(O)ccc(O)c2C1=O | 2.78 µM | –
42 | CCN(CC)c1ccc(/C=C/c2ccnc3ccccc23)cc1 | > 100 µM | –
43 | COc1ccc(C(=O)NCCN(C)C)c2nc3ccccc3cc12 | 7.46 µM | –
44 | CCN(C(=O)N[C@@H](C)C(=O)N[C@@H](Cc1ccccc1)C(=O)OC)c1ccccc1 | > 100 µM | –
45 | O=C(CCSC1=NCCCN1)c1ccc(F)cc1 | 36.5 µM | –
46 | CCOc1c(OC)cc(-c2nc3n(n2)C(=O)C(CC)S3)cc1OC (centres undefined) | > 10 µM | –
47 | CC1OC(O[C@H]2C3C=CO[C@@H](OC4OC(CO)C(O)C(O)C4O)C3[C@@]3(COC(=O)/C=C/c4ccccc4)O[C@@H]23)C(O)C(O)C1O (some centres undefined) | > 100 µM | –
48 | O=C1C(=Nc2ccc(Nc3ccccc3)cc2)Oc2ccccc21 | 14.4 µM | –
49 | Cc1nc2ccccc2c(-n2cccn2)c1CCn1cccn1 | > 100 µM | –
50 | COc1cc2c(cc1OCCCCCN1CCN(c3ncnc4ccccc34)CC1)N=CC1CCCN1C2=O (centres undefined) | 0.709 µM | 0.0425 µM
51 | C/C1=C\[C@H](C)C[C@H](C)OC(=O)[C@H](C)NC(=O)[C@@H](Cc2ccc(O)c(Br)c2)N(C)C(=O)[C@H](C)NC(=O)[C@@H](C)C1 | 9.34 µM | –
52 | COc1cc2c(cc1OCCCN1C(=O)c3cccc4cccc(c34)C1=O)N=C[C@@H]1CCCN1C2=O | > 100 µM | –
53 | COC(=O)c1ccccc1CC1Cc2cccc(C)c2C1=O (centres undefined) | 53.2 µM | –
54 | COc1ccc(/C=N/NC(=O)c2ccc(O)c(CN(C)C)c2)cc1 | > 100 µM | –

test system: T-47D breast; test: NCI anticancer screen, dose series, 48 h

Row | SMILES | TGI | GI50
55 | CCc1n[nH]c(=O)n1-c1ccc2ccccc2c1 | > 100 µM | –
56 | CSc1nc2c(c(N(C)C)n1)C(O)n1c(nc3ccccc31)S2 (centres undefined) | > 85.3 µM | –
57 | COc1ccc(-c2nc3ccccc3c(=S)n2OC(C)=O)cc1 | > 25 µM | –
58 | C=C1C(=O)[C@@]23CC[C@@H]4[C@@]5(C)CCC[C@@]4(OC5=O)[C@@]2(C)CC[C@@H]1C3 | 57.9 µM | –
59 | CCCCOCCOC1=C(Cl)C(=O)c2c(O)ccc(O)c2C1=O | 4.07 µM | –
60 | CCN(CC)c1ccc(/C=C/c2ccnc3ccccc23)cc1 | > 100 µM | –
61 | COc1ccc(C(=O)NCCN(C)C)c2nc3ccccc3cc12 | 12.6 µM | –
62 | CCN(C(=O)N[C@@H](C)C(=O)N[C@@H](Cc1ccccc1)C(=O)OC)c1ccccc1 | > 100 µM | –
63 | O=C(CCSC1=NCCCN1)c1ccc(F)cc1 | > 70.6 µM | –
64 | CCOc1c(OC)cc(-c2nc3n(n2)C(=O)C(CC)S3)cc1OC (centres undefined) | > 10 µM | –
65 | CC1OC(O[C@H]2C3C=CO[C@@H](OC4OC(CO)C(O)C(O)C4O)C3[C@@]3(COC(=O)/C=C/c4ccccc4)O[C@@H]23)C(O)C(O)C1O (some centres undefined) | > 100 µM | –
66 | O=C1C(=Nc2ccc(Nc3ccccc3)cc2)Oc2ccccc21 | 9.57 µM | –
67 | Cc1nc2ccccc2c(-n2cccn2)c1CCn1cccn1 | > 100 µM | –
68 | COc1cc2c(cc1OCCCCCN1CCN(c3ncnc4ccccc34)CC1)N=CC1CCCN1C2=O (centres undefined) | 0.0428 µM | 0.0139 µM
69 | C/C1=C\[C@H](C)C[C@H](C)OC(=O)[C@H](C)NC(=O)[C@@H](Cc2ccc(O)c(Br)c2)N(C)C(=O)[C@H](C)NC(=O)[C@@H](C)C1 | > 25 µM | –
70 | COc1cc2c(cc1OCCCN1C(=O)c3cccc4cccc(c34)C1=O)N=C[C@@H]1CCCN1C2=O | > 100 µM | –
71 | COC(=O)c1ccccc1CC1Cc2cccc(C)c2C1=O (centres undefined) | 82.7 µM | –
72 | COc1ccc(/C=N/NC(=O)c2ccc(O)c(CN(C)C)c2)cc1 | > 100 µM | –

test system: LOX IMVI melanoma; test: NCI anticancer screen, dose series, 48 h

Row | SMILES | TGI | GI50
73 | CCc1n[nH]c(=O)n1-c1ccc2ccccc2c1 | > 100 µM | –
74 | CSc1nc2c(c(N(C)C)n1)C(O)n1c(nc3ccccc31)S2 (centres undefined) | 75.5 µM | –
75 | COc1ccc(-c2nc3ccccc3c(=S)n2OC(C)=O)cc1 | > 25 µM | –
76 | C=C1C(=O)[C@@]23CC[C@@H]4[C@@]5(C)CCC[C@@]4(OC5=O)[C@@]2(C)CC[C@@H]1C3 | 2.96 µM | –
77 | CCCCOCCOC1=C(Cl)C(=O)c2c(O)ccc(O)c2C1=O | 0.946 µM | –
78 | CCN(CC)c1ccc(/C=C/c2ccnc3ccccc23)cc1 | > 100 µM | –
79 | COc1ccc(C(=O)NCCN(C)C)c2nc3ccccc3cc12 | 1.74 µM | –
80 | CCN(C(=O)N[C@@H](C)C(=O)N[C@@H](Cc1ccccc1)C(=O)OC)c1ccccc1 | > 100 µM | –
81 | O=C(CCSC1=NCCCN1)c1ccc(F)cc1 | 45.1 µM | –
82 | CCOc1c(OC)cc(-c2nc3n(n2)C(=O)C(CC)S3)cc1OC (centres undefined) | > 10 µM | –
83 | CC1OC(O[C@H]2C3C=CO[C@@H](OC4OC(CO)C(O)C(O)C4O)C3[C@@]3(COC(=O)/C=C/c4ccccc4)O[C@@H]23)C(O)C(O)C1O (some centres undefined) | > 100 µM | –
84 | O=C1C(=Nc2ccc(Nc3ccccc3)cc2)Oc2ccccc21 | 4.4 µM | –
85 | Cc1nc2ccccc2c(-n2cccn2)c1CCn1cccn1 | > 100 µM | –
86 | COc1cc2c(cc1OCCCCCN1CCN(c3ncnc4ccccc34)CC1)N=CC1CCCN1C2=O (centres undefined) | – | 0.0167 µM
87 | C/C1=C\[C@H](C)C[C@H](C)OC(=O)[C@H](C)NC(=O)[C@@H](Cc2ccc(O)c(Br)c2)N(C)C(=O)[C@H](C)NC(=O)[C@@H](C)C1 | 0.394 µM | –
88 | COc1cc2c(cc1OCCCN1C(=O)c3cccc4cccc(c34)C1=O)N=C[C@@H]1CCCN1C2=O | > 100 µM | –
89 | COC(=O)c1ccccc1CC1Cc2cccc(C)c2C1=O (centres undefined) | 39.6 µM | –
90 | COc1ccc(/C=N/NC(=O)c2ccc(O)c(CN(C)C)c2)cc1 | > 100 µM | –
